Where a name gives a salt, the structure may show the parent alone.
Experiments:
[1] = tested on: human lung cancer NCI-H23 cells; assay: In vivo pharmacodynamics in the NCI-H23 subcutaneous graft tumor model; set-up: species or system CB.17/SCID mouse; settings: for TGI (%) / Tumor change (%): 14 days after administration; for TGI (%) / Tumor change (%) / Tumor volume (mm^3) day 0 / Tumor volume (mm^3) day 14: 12.5 mg/kg PO QD + Cisplatin 1.5 mg/kg IP QW, NCI-H23 xenograft, CB.17/SCID mice; for body weight of mice after drug administration / decrease in tumor volume compared to the Cisplatin+VX-970 group: combination with Cisplatin; for body weight of mice after drug administration: no difference in body weight loss between the groups (FIG. 1); for Tumor volume (mm^3) day 0: day 0 (start of administration); for Tumor volume (mm^3) day 14: 2 weeks; for decrease in tumor volume compared to the Cisplatin+VX-970 group: p<0.05 in T-test (FIGS. 2 and 3)
Description: • 1, cell culture: human lung cancer NCI-H23 cells (ATCC, Item No.: CRL-5800) are performed with an in vitro monolayer culture. […] Trypsin-EDTA was used for conventional digestion and treatment of passaging twice a week. When the cell saturation is […] and the number meets the requirement, the cells are collected, counted and inoculated. • 2, Animals: CB.17/SCID mouse, female, 6-8 weeks old, weighing 18-22 grams. A total of 84 mice are needed, which are provided by Beijing Viton Lihua Laboratory Animal Technology Co., Ltd. or equivalent qualified suppliers. • 3.
• 4. Tumor inoculation: 0.2 mL (10×10^6 cells) of NCI-H23 cells (plus stromal gel, volume ratio 1:1) were subcutaneously inoculated into the right back of each mouse. Mice are grouped for drug administration when the average tumor volume reached about 200 mm^3. Animals were weighed before dosing and tumor volumes were measured. Groups were randomized according to tumor volume (randomized area group design).
• 1 ? The experimental index is to examine whether the tumor growth is inhibited, delayed or cured. […] Calculation of Tumor change (%): Tumor change (%)=(average tumor volume at the end of administration of a treatment group−average tumor volume at the beginning of administration of a treatment group)/average tumor volume at the beginning of administration of a treatment group×100%. Tumor change (%): less than 0, non-growth of the tumor in the mice after the drug administration, and the existence of inhibition. • 6.

ATR kinase = ATR kinase (Homo sapiens (Human), UniProt Q13535); assay: ATR enzyme activity inhibition assay (HTRF); assay type: biochemical; settings: p53 substrate, full-length ATR enzyme
ATR kinase, sequence (Q13535 whole entry): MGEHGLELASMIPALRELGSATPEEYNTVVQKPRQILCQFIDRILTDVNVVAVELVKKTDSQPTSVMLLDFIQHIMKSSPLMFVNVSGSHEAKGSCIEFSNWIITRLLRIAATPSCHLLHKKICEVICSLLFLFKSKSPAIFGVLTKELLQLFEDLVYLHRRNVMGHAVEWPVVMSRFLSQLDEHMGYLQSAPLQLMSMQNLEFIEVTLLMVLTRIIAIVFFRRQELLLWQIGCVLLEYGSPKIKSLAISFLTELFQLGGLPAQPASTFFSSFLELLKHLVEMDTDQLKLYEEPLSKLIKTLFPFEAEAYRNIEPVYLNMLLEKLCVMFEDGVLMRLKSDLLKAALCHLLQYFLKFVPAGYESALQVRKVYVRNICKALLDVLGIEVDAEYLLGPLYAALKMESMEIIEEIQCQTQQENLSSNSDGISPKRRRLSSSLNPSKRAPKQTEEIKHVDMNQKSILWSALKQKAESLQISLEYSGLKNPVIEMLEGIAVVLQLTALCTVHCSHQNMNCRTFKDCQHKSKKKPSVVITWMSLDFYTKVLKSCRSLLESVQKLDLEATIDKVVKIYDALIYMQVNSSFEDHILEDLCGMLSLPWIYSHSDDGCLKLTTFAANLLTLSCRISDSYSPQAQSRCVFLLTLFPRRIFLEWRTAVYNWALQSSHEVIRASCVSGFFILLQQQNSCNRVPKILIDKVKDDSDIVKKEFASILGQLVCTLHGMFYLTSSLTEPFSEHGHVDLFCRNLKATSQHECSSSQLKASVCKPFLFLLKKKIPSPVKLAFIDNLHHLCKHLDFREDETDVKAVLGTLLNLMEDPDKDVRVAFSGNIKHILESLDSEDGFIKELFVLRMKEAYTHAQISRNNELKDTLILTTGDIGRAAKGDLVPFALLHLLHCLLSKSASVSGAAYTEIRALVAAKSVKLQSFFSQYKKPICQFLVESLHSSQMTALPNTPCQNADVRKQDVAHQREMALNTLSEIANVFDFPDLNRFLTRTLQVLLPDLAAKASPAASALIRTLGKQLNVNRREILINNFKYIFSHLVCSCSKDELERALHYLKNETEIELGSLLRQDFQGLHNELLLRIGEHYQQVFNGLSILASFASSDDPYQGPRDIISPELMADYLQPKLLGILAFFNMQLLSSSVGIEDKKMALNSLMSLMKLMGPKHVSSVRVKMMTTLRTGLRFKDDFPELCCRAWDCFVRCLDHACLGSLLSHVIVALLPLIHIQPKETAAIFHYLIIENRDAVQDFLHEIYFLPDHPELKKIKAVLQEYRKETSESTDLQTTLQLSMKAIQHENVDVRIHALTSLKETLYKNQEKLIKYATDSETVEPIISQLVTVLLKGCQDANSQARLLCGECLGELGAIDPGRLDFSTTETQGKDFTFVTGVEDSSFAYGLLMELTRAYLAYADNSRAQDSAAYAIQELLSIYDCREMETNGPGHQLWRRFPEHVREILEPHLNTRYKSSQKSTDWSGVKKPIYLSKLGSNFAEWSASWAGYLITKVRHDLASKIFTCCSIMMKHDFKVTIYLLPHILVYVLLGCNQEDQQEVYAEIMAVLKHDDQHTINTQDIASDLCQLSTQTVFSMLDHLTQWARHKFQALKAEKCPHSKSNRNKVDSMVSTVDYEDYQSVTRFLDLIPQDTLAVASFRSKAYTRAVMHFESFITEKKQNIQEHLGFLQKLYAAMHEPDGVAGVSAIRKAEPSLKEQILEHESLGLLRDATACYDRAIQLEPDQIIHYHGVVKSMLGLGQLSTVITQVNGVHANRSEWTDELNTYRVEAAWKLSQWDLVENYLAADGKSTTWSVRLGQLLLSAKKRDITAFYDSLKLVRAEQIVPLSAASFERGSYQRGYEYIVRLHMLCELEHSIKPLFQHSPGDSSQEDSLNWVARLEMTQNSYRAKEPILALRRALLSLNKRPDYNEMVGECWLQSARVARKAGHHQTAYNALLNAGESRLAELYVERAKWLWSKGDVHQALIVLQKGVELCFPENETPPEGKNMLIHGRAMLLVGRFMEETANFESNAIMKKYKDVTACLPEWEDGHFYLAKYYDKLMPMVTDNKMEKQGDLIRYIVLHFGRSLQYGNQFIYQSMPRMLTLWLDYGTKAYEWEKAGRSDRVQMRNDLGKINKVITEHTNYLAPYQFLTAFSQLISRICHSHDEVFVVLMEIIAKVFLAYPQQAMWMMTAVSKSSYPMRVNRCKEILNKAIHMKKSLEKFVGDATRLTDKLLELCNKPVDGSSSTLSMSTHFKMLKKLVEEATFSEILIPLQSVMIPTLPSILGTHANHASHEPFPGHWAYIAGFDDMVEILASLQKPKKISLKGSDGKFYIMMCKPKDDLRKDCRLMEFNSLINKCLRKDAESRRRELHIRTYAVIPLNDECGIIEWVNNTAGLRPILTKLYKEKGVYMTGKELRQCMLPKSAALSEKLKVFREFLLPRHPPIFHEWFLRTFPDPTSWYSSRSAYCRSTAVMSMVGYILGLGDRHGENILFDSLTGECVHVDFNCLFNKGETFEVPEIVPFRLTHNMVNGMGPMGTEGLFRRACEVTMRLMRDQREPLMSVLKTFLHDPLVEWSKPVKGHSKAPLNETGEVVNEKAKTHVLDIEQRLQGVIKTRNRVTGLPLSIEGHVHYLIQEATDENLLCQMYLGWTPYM
ATR kinase, sequence (Q8WXE1 whole entry partner): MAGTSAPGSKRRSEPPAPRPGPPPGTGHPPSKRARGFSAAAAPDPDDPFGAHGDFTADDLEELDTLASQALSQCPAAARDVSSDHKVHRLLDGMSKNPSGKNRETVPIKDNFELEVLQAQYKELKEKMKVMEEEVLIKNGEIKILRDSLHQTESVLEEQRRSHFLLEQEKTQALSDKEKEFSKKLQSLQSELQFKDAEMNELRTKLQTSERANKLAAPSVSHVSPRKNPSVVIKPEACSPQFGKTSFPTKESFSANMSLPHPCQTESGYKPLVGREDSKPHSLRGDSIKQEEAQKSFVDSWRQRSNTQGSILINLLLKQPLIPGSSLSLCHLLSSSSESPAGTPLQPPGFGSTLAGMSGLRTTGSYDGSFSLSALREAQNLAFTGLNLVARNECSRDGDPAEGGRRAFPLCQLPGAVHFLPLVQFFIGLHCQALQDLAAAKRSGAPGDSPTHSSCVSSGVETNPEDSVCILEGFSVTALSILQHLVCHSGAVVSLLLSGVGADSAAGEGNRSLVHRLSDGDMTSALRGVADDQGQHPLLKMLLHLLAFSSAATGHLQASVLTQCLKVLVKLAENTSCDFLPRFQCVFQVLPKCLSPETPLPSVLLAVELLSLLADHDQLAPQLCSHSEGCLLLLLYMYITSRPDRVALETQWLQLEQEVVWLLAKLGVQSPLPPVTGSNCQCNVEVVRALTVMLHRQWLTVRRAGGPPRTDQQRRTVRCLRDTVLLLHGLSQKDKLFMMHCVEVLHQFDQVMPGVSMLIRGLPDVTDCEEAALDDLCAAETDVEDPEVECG
Description: The inhibitory ability to ATR kinase for selected compounds was tested by the HTRF (Homogeneous Time-Resolved Fluorescence). In the reaction system, After the substrate p53 is phosphorylated by ATR, the anti-phospho-p53-Eu that serves as an energy donor and specifically binds to the phosphorylation site on p53 is added. Then, the anti-GST-d2 as an energy acceptor that specifically binds to the GST tag carried on p53 is added. […] The IC50 of the sample to be tested can be obtained through graphing and calculation.
Prepare various buffer systems required for the experiment: • 1. […] Prepare detection buffer: Dilute each of the anti-phospho-p53-Eu cryptate (Cisbio, Cat #61P08KA) and anti-GST-d2 (Cisbio, Cat #61GSTDLB) to 1 unit using HTRF detection buffer (Cisbio, Cat #62SDBRDF).
Powdered compounds were dissolved in DMSO to from a stock solution at a concentration of 10 mM. The solution of compounds to be tested at a concentration of […] was performed a 3-fold dilution for 10 concentrations with DMSO. […] 5 μL of ATR was added to each well accordingly. Each well is incubated at 25° C. for 10 min, added with 5 μL of reaction substrate, incubated at 25° C. for 90 min and added with 10 μL of detection solution. […] The inhibition curves of the compounds were made by the four-parameter […] regression equation of XLfit software, and the inhibition rates of the compounds were calculated.

| Compound | TGI (%) [1] [%] | Tumor change (%) [1] [%] | Tumor change (%) ([1]; listed as VX970) | body weight of mice after drug administration [1] | Tumor volume (mm^3) day 0 [1] [mm^3] | Tumor volume (mm^3) day 14 [1] [mm^3] | IC50 (ATR kinase) [nM] | decrease in tumor volume compared to the Cisplatin+VX-970 group [1] |
| --- | --- | --- | --- | --- | --- | --- | --- | --- |
| CNCc1ccc(-c2cc(-c3nc(-c4ccc(S(=O)(=O)C(C)C)cc4)cnc3N)on2)cc1 [VX-970, Berzosertib, reference compound] | 128 | −12 | −13 | decrease in body weight | 266 | 231 | – | – |
| (R)-5-(5-amino-6-(5-(4-((methylamino)methylene)phenyl)-1,3,4-oxadiazol-2-yl)pyrazin-2-yl)-3-fluoro-2,2-dimethyl-2,3-dihydrobenzo[b]thiophene 1,1-dioxide or (S)-5-(5-amino-6-(5-(4-((methylamino)methylene)phenyl)-1,3,4-oxadiazol-2-yl)pyrazin-2-yl)-3-fluoro-2,2-dimethyl-2,3-dihydrobenzo[b]thiophene 1,1-dioxide [Example 33-1 or 33-2] | 245 | −66 | – | decrease in body weight | 267 | 92 | 0.83 | more obvious decrease in tumor volume |
| (R)-5-(5-amino-6-(3-(4-((methylamino)methyl)phenyl)isoxazol-5-yl-4-deuterium)pyrazin-2-yl)-3-fluoro-2,2-dimethyl-2,3-dihydrobenzo[b]thiophene 1,1-dioxide or (S)-5-(5-amino-6-(3-(4-((methylamino)methyl)phenyl)isoxazol-5-yl-4-deuterium)pyrazin-2-yl)-3-fluoro-2,2-dimethyl-2,3-dihydrobenzo[b]thiophene 1,1-dioxide [Example 38-1 or 38-2] | 159 | −29 | – | decrease in body weight | 252 | 180 | 0.75 | more obvious decrease in tumor volume |
| CNCc1ccc(-c2cc(-c3nc(-c4ccc5c(c4)C(F)C(C)(C)S5(=O)=O)cnc3N)no2)cc1 (centres unmarked) [Example 34, 5-(5-amino-6-(5-(4-((methylamino)methyl)phenyl)isoxazol-3-yl)pyrazin-2-yl)-3-fluoro-2,2-dimethyl-2,3-dihydrobenzo[b]thiophene 1,1-dioxide] | – | – | – | – | – | – | 0.92 | – |
| CC(C)S(=O)(=O)c1ccc(-c2cnc(N)c(-c3cc(-c4ccc(CNC(=N)N)cc4F)no3)n2)cc1 [Example 4, 1-(4-(5-(3-amino-6-(4-isopropylsulfonyl)phenyl)pyrazin-2-yl)isoxazol-3-yl)-3-fluorobenzyl)guanidine dihydrochloride] | – | – | – | – | – | – | 0.83 | – |
| CNC(=O)Nc1ccc(-c2cc(-c3nc(-c4ccc(S(=O)(=O)C(C)C)cc4)cnc3N)on2)cc1 [Example 14, 1-(4-(5-(3-amino-6-(4-(isopropylsulfonyl)phenyl)pyrazin-2-yl)isoxazol-3-yl)phenyl)-3-methylurea] | – | – | – | – | – | – | 1.42 | – |

Reference: patent US20250026742A1 (SUZHOU ARK BIOPHARMACEUTICAL CO., LTD., priority 2021, published 2025)
